Read-outs that look alike come from different tables or passages of the source.
Key:
[1] = Cytotoxicity (CC50) in mock-infected H1-HeLa cells, XTT dye reduction; assay type: cell-based, human; settings: human, H1-HeLa cells, mock-infected
In short: (§1)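 H1-HeLa cells mock-infected, read by XTT/PMS formazan at 450/650 nm.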

H1-HeLa cells = experiment: as above; assay type: cell-based, human
In short: as §1

[2] = target: T1, Recombinant rhinovirus 3C protease, serotype 14 (Human rhinovirus 14, UniProt P03303); experiment: Inhibition of rhinovirus 3C protease (FRET assay, kobs/[I]), serotype 14; assay type: biochemical; settings: pH 7.6, read-out: kobs/[I] (3C protease inhibition activity)
T1 construct: Recombinant rhinovirus 3C proteases; made in house
T1 sequence (P03303 1538-1719): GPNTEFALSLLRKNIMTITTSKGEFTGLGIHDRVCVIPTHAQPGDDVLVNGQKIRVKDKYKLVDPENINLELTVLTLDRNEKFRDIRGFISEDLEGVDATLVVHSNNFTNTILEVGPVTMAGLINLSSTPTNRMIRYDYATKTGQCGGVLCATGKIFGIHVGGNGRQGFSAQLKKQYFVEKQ
In short: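 Enzyme-start FRET assay with ~1 μM DABCYL/EDANS peptide substrate and 50-100 nM recombinant protease in 50 mM tris pH 7.6, 1 mM EDTA, 2% DMSO. Cleavage followed as fluorescence increase; kobs/[I] derived from progress curves.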

HRV-14 = experiment: Antirhinoviral H1-HeLa cell culture assay (XTT cell protection, EC50), HRV-14; assay type: cell-based, human rhinovirus (HRV) serotype-14 in H1-HeLa cells; settings: Rhinovirus B, HRV14, H1-HeLa
In short: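 H1-HeLa cells were infected with HRV-14 at m.o.i. 0.13, or mock-infected, and incubated with compound for two days. Cell protection was read by XTT/PMS formazan absorbance at 450/650 nm to give EC50. CC50 came from mock-infected cells, and TI = CC50/EC50.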

[3] = tested on: strains of human rhinovirus (HRV); experiment: Antirhinoviral H1-HeLa cell culture assay (XTT cell protection, EC50), other HRV strains; assay type: cell-based, human rhinovirus in H1-HeLa cells
In short: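 H1-HeLa cells infected, or mock-infected, were incubated with compounds for two days. Cell protection measured by XTT/PMS formazan absorbance at 450/650 nm; TI taken as CC50 divided by EC50.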

[4] = H1-HeLa, HRV-1A, read-out: EC50
[5] = Human rhinovirus sp., HRV3, H1-HeLa, HRV-3, read-out: EC50
[6] = Human rhinovirus sp., HRV9, H1-HeLa, HRV-9, read-out: EC50
[7] = Human rhinovirus sp., HRV10, H1-HeLa, HRV-10, read-out: EC50
[8] = Human rhinovirus sp., HRV13, H1-HeLa, HRV-13, read-out: EC50
[9] = Human rhinovirus sp., HRV16, H1-HeLa, HRV-16, read-out: EC50
[10] = Human rhinovirus sp., HRV25, H1-HeLa, HRV-25, read-out: EC50
[11] = Human rhinovirus sp., HRV39, H1-HeLa, HRV-39, read-out: EC50
[12] = Human rhinovirus sp., HRV78, H1-HeLa, HRV-78, read-out: EC50

SMILES	CC50 at 2 days ([1]; HRV-14) [µM]	CC50 (H1-HeLa cells; HRV-1A) [µM]	CC50 (H1-HeLa cells; HRV-3) [µM]	CC50 (H1-HeLa cells; HRV-9) [µM]	CC50 (H1-HeLa cells; HRV-10) [µM]	CC50 (H1-HeLa cells; HRV-13) [µM]	CC50 (H1-HeLa cells; HRV-16) [µM]	CC50 (H1-HeLa cells; HRV-25) [µM]	CC50 (H1-HeLa cells; HRV-39) [µM]	CC50 (H1-HeLa cells; HRV-78) [µM]	kinact/KI ([2]; HRV-14 3C protease) [M⁻¹ s⁻¹]	EC50 (HRV-14) [µM]	EC50 [3, 4] [µM]	EC50 ([3]; H1-HeLa, HRV-2, read-out: EC50) [µM]	EC50 [3, 5] [µM]	EC50 [3, 6] [µM]	EC50 [3, 7] [µM]	EC50 [3, 8] [µM]	EC50 [3, 9] [µM]	EC50 [3, 11] [µM]	also measured
Cc1cc(C(=O)Nc2cccn([C@@H](Cc3ccc(F)c(F)c3)C(=O)N[C@H](/C=C/C(=O)OC3CCC3)C[C@@H]3CCNC3=O)c2=O)no1 [Compound 58, trans-(2′S,3″″″S,4S)-4-[3′-(3″,4″-Difluorophenyl)-2′-(3′″-{[1″″-(5′″″-methylisoxazol-3′″″-yl)methanoyl]amino}-2″″-oxo-2″″H-pyridin-1″″-yl)propanoylamino]-5-(2″″″-oxopyrrolidin-3″″″-yl)pent-2-enoic Acid Cyclobutyl Ester]	> 10	> 10	> 10	> 10	> 10	> 10	> 10	> 10	> 10	> 10	2.2e+06	0.003	0.014	0.013	0.005	0.047	0.011	0.024	0.014	0.02	CC50 (H1-HeLa cells; HRV-2): > 10 µM; CC50 (H1-HeLa cells; HRV-11): > 10 µM; CC50 (H1-HeLa cells; HRV-19): > 10 µM; CC50 (H1-HeLa cells; HRV-23): > 10 µM; CC50 (H1-HeLa cells; HRV-Hanks): > 10 µM; EC50 ([3]; H1-HeLa, HRV-23, read-out: EC50): 0.008 µM; EC50 ([3]; Human rhinovirus sp., H1-HeLa, HRV-Hanks, read-out: EC50): 0.021 µM; EC50 ([3]; Human rhinovirus sp., HRV11, H1-HeLa, HRV-11, read-out: EC50): 0.005 µM; EC50 ([3]; Human rhinovirus sp., HRV19, H1-HeLa, HRV-19, read-out: EC50): 0.017 µM; EC50 [3, 10]: 0.016 µM; EC50 [3, 12]: 0.014 µM
CCOC(=O)/C=C/[C@H](C[C@@H]1CCNC1=O)NC(=O)[C@@H]1CCc2ccc(NC(=O)c3cc(C)on3)c(=O)n21 [Compound 37, trans-(3′S,3′″S,4S)-4-({6′-[(5″-Methylisoxazole-3″-carbonyl)amino]-5′-oxo-1′,2′,3′,5′-tetrahydroindolizine-3′-carbonyl}amino)-5-(2′″-oxopyrrolidin-3′″-yl)-pent-2-enoic Acid Ethyl Ester]	–	–	–	–	–	–	–	–	–	–	–	0.162	0.108	0.037	0.043	0.121	0.041	–	0.072	0.016	CC50 at 2 days ([1]; line of HRV-14): > 10 µM; CC50 (H1-HeLa cells; line of HRV-1A): > 10 µM; CC50 (H1-HeLa cells; line of HRV-2): > 10 µM; CC50 (H1-HeLa cells; line of HRV-3): > 10 µM; CC50 (H1-HeLa cells; line of HRV-9): > 10 µM; CC50 (H1-HeLa cells; line of HRV-10): > 10 µM; CC50 (H1-HeLa cells; line of HRV-16): > 10 µM; CC50 (H1-HeLa cells; line of HRV-25): > 10 µM; CC50 (H1-HeLa cells; line of HRV-39): > 10 µM; CC50 (H1-HeLa cells; line of HRV-87): > 10 µM; kinact/KI ([2]; HRV-14): 177000 M⁻¹ s⁻¹; EC50 ([3]; Human rhinovirus sp., HRV25, H1-HeLa): 0.162 µM; EC50 ([3]; Human rhinovirus sp., HRV87, H1-HeLa, HRV-87, read-out: EC50): 0.058 µM
Cc1cc(C(=O)Nc2cccn([C@@H](Cc3ccccc3)C(=O)N[C@H](/C=C/C(=O)OC(C)C)C[C@@H]3CCNC3=O)c2=O)no1 [Compound 66, trans-(2′S,3′″″S,4S)-4-[2′-(3″-{[1′″-(5″″-Methylisoxazol-3″″-yl)methanoyl]amino}-2′″-oxo-2′″H-pyridin-1′″-yl)-3″-phenylpropanoylamino]-5-(2′″″-oxopyrrolidin-3′″″-yl)pent-2-enoic Acid Isopropyl Ester]	> 10	–	> 10	> 10	–	> 10	> 10	–	> 10	> 10	480000	0.155	–	–	0.056	0.196	–	0.057	0.011	0.022	EC50 [3, 12]: 0.015 µM
C#CC[C@@H](C(=O)N[C@H](/C=C/C(=O)OC1CCCCCC1)C[C@@H]1CCNC1=O)n1cccc(NC(=O)c2cc(C)on2)c1=O [Compound 57, trans-(2′S,3′″″S,4S)-4-[2′-(3″-{[1′″-(5″″-Methylisoxazol-3″″-yl)methanoyl]amino}-2′″-oxo-2′″H-pyridin-1′″-yl)pent-4″-ynoylamino]-5-(2′″″-oxopyrrolidin-3′″″-yl)pent-2-enoic Acid Cycloheptyl Ester]	> 10	> 10	–	> 10	> 10	–	–	> 10	–	–	47000	0.422	1.61	–	–	1.5	0.482	–	–	–	EC50 [3, 10]: 0.511 µM
